According to US20110028447A1, “INDAZOLE DERIVATIVES” (Pfizer Inc., priority 2008, published 2011):
Like-named read-outs stand apart in the source and are kept apart here.

Assays:
human CB1 receptor [1] = molecular target: T1, human CB1 receptor (Homo sapiens, UniProt P21554); assay: [35S] GTPγS binding on membranes of CHO cells expressing the human CB1 receptor (agonism); assay type: biochemical; set-up: expressed in transfected cells; membrane preparation
Experimental: Membrane preparation: CHO cells expressing the human CB1 receptor were grown to 80% confluence in Ham's F-12 Nutrient Medium (Invitrogen) containing 10% fetal bovine serum (Invitrogen), 1% pen/strep (Invitogen), 1% Nonessential amino acids (Invitrogen) and 500 μg/ml G418 (Invitrogen). Cells were released from flasks using Cell Dissociation Buffer (Invitrogen). Cells were pelleted by centrifugation at 500×G for 5 minutes. Membranes were prepared by resuspending cells in ice cold Assay Buffer (25 mM Tris pH 7.4, 5 mM EDTA, 5 mM EGTA, Complete Protease Inhibitor (Roche)). Cells were lysed with 12 strokes of a dounce homogenizer. Unlysed cells were pelleted by centrifugation at 500×G for 5 minutes. Membranes were pelleted by centrifugation at 25,000×G for 30 minutes. Membranes were resuspended in TEE, dounced 12 strokes, and pelleted a second time at 25,000×G for 30 minutes. Membrane pellet was resuspended in 50 mM Tris pH 7.4, 100 mM NaCl, 3 mM MgCl2, 0.2 mM EGTA, Complete Protease Inhibitor (Roche). Protein concentration was determined using the Micro-BCA Protein Assay Kit (Pierce) using BSA as a standard. Membranes were frozen and stored at −80 degrees Celsius until use.
GTPγS Binding: 40 μl of test compound was incubated with 20 μl of [^35S] GTPγS (Perkin Elmer) (1250 Ci/millimole) and 140 μl of membrane homogenate (5 μg/well) in polypropylene 96-well plates (Corning). Final reaction conditions were 50 mM Tris pH 7.4, 100 mM NaCl, 3 mM MgCl2, 0.2 mM EGTA, 0.04% BSA. After incubation at 37 degrees Celsius for 45 minutes reactions were harvested by vacuum filtration through Unifilter GF/B-96 filters (Perkin Elmer) using a FilterMate Plate Harvester (Perkin Elmer). Filters were rinsed 4 times with ice cold 50 mM Tris pH 7.4, 3 mM MgCl2, 0.2 mM EGTA and dried at 50 degrees Celsius for at least 30 minutes. 40 μl of Microscint-20 (Perkin Elmer) was added per well, and plates were counted using a Top-Count Microplate Scintillation Counter (Perkin Elmer). Binding data were analyzed and EC50 values were calculated using Graph Pad Prism 4.0 Software.

human CB1 receptor [2] = molecular target: T1, human CB1 receptor; assay: Human CB1 receptor binding, [3H] CP-55,940 displacement on HEK cell membranes; set-up: expressed in transfected cells; host or cells: HEK cells, doxycycline-induced; membrane preparation
Method in brief: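 Membranes from doxycycline-induced HEK cells expressing human CB1 incubated 60 min at room temperature with [3H] CP-55,940 (final […]) in 50 mM Tris pH 7.4, 100 mM NaCl, 3 mM MgCl2, 0.2 mM EGTA, 0.04% BSA. Nonspecific binding defined with 50 μM WIN-55,212-2; filtration and scintillation counting gave EC50 and Ki.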

[3] = GTPγS EC50, human CB1, CHO cell membranes
[4] = human CB1, CHO cell membranes, read-out: GTPγS EC50

T1 sequence (P21554 whole entry): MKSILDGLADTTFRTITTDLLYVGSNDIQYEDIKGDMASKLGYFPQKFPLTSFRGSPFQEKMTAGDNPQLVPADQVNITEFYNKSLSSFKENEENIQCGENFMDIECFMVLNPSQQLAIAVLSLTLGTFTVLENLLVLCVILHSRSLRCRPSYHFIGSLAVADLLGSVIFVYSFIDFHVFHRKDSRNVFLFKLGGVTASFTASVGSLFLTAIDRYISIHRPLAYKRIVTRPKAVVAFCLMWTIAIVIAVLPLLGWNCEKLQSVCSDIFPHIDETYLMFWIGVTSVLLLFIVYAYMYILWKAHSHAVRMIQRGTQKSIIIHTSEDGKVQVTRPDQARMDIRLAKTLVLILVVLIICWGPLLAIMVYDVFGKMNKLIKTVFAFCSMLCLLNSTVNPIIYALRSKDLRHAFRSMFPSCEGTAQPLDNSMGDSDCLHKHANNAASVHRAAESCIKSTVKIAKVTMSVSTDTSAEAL

## CC(C)(C)[C@H](NC(=O)c1nn(Cc2ccc(F)cc2)c2ccccc12)C(N)=O [Example 1, N-[(1S)-1-(Aminocarbonyl)-2,2-dimethylpropyl]-1-(4-fluorobenzyl)-1H-indazole-3-carboxamide]
Human CB1 receptor [1]; [3]
  EC50: 0.00098 µM
Human CB1 receptor [2]; CB1 Ki
  Ki: 0.00036 µM

## CC(C)[C@H](NC(=O)c1nn(Cc2ccc(F)cc2)c2ccccc12)C(N)=O [Example 2, N-[(1S)-1-(aminocarbonyl)-2-methylpropyl]-1-(4-fluorobenzyl)-1H-indazole-3-carboxamide]
Human CB1 receptor [1]; [3]
  EC50: 0.0232 µM
Human CB1 receptor [2]; CB1 Ki
  Ki: 0.0009 µM

## NC(=O)[C@@H](NC(=O)c1nn(Cc2ccc(F)cc2)c2ccccc12)c1ccccc1 [Example 3, N-[(1S)-2-amino-2-oxo-1-phenylethyl]-1-(4-fluorobenzyl)-1H-indazole-3-carboxamide]
Human CB1 receptor [1]; [3]
  EC50: 0.298 µM
Human CB1 receptor [2]; CB1 Ki
  Ki: 0.0499 µM

## CC(C)(C)[C@H](NC(=O)c1nn(Cc2ccccn2)c2ccccc12)C(N)=O [Example 6, N-[(1S)-1-(aminocarbonyl)-2,2-dimethylpropyl]-1-(pyridin-2-ylmethyl)-1H-indazole-3-carboxamide]
Human CB1 receptor [1]; [3]
  EC50: 0.16 µM
Human CB1 receptor [2]; CB1 Ki
  Ki: 0.0126 µM

## CC(C)(C)[C@H](NC(=O)c1nn(Cc2ccccc2)c2ccc(Br)cc12)C(N)=O [Example 7, N-[(1S)-1-(aminocarbonyl)-2,2-dimethylpropyl]-1-benzyl-5-bromo-1H-indazole-3-carboxamide]
Human CB1 receptor [1]; [3]
  EC50: 0.0129 µM
Human CB1 receptor [2]; CB1 Ki
  Ki: 0.00204 µM

## CC(C)(C)[C@H](NC(=O)c1nn(Cc2ccccc2)c2ccc(-c3cccnc3)cc12)C(N)=O [Example 8, N-[(1S)-1-(Aminocarbonyl)-2,2-dimethylpropyl]-1-benzyl-5-pyridin-3-yl-1H-indazole-3-carboxamide]
Human CB1 receptor [1]; [4]
  EC50: 0.209 µM
Human CB1 receptor [2]; read-out: CB1 Ki
  Ki: 0.118 µM

## CC(C)(C)[C@H](NC(=O)c1nn(Cc2ccc(C#N)cc2)c2c(F)cccc12)C(=O)NCCO [Example 10, 1-(4-cyanobenzyl)-7-fluoro-N-[(1S)-1-{[(2-hydroxyethyl)amino]carbonyl}-2,2-dimethylpropyl]-1H-indazole-3-carboxamide]
Human CB1 receptor [1]; [3]
  EC50: 0.0375 µM
Human CB1 receptor [2]; CB1 Ki
  Ki: 0.00191 µM

## CC(C)(C)[C@H](NC(=O)c1nn(Cc2ccc(F)cc2)c2ccccc12)C(=O)NCc1nnc(C(N)=O)o1 [Example 11, N-{(1S)-1-[({[5-(aminocarbonyl)-1,3,4-oxadiazol-2-yl]methyl}amino)carbonyl]-2,2-dimethylpropyl}-1-(4-fluorobenzyl)-1H-indazole-3-carboxamide]
Human CB1 receptor [1]; [4]
  EC50: 0.00055 µM
Human CB1 receptor [2]; read-out: CB1 Ki
  Ki: 0.00029 µM

## CC(C)(C)[C@H](NC(=O)c1nn(Cc2ccccc2)c2ncccc12)C(N)=O [Example 12, N-[(1S)-1-(aminocarbonyl)-2,2-dimethylpropyl]-1-benzyl-1H-pyrazolo[3,4-b]pyridine-3-carboxamide]
Human CB1 receptor [1]; [3]
  EC50: 0.302 µM
Human CB1 receptor [2]; CB1 Ki
  Ki: 0.0115 µM

## CC(C)(C)[C@H](NC(=O)c1nn(Cc2ccccc2F)c2ccccc12)C(N)=O [Example 13]
Human CB1 receptor [1]; [3]
  EC50: 0.0119 µM
Human CB1 receptor [2]; CB1 Ki
  Ki: 0.00073 µM

## CC(C)C(NC(=O)c1nn(Cc2ccccc2F)c2ccccc12)C(N)=O (stereo not shown) [Example 17]
Human CB1 receptor [1]; [3]
  EC50: 0.149 µM
Human CB1 receptor [2]; CB1 Ki
  Ki: 0.00469 µM

## CC(C)(C)C(NC(=O)c1nn(Cc2cccc(F)c2)c2ccccc12)C(N)=O (stereo not shown) [Example 19]
Human CB1 receptor [1]; [3]
  EC50: 0.0205 µM
Human CB1 receptor [2]; CB1 Ki
  Ki: 0.00257 µM

## CC(C)C(NC(=O)c1nn(Cc2cccc(F)c2)c2ccccc12)C(N)=O (stereo not shown) [Example 20]
Human CB1 receptor [1]; [3]
  EC50: 0.216 µM
Human CB1 receptor [2]; CB1 Ki
  Ki: 0.0511 µM

## CC(C)(C)C(NC(=O)c1nn(Cc2ccccc2)c2ccccc12)C(N)=O (stereo not shown) [Example 27]
Human CB1 receptor [1]; [3]
  EC50: 0.0147 µM
Human CB1 receptor [2]; CB1 Ki
  Ki: 0.00033 µM

## CC(C)(C)C(NC(=O)c1nn(Cc2ccc(C#N)cc2)c2ccccc12)C(N)=O (stereo not shown) [Example 28]
Human CB1 receptor [1]; [3]
  EC50: 0.121 µM
Human CB1 receptor [2]; CB1 Ki
  Ki: 0.00205 µM

## CC(C)(C)C(NC(=O)c1nn(Cc2ccccc2C#N)c2ccccc12)C(N)=O (stereo not shown) [Example 30]
Human CB1 receptor [1]; [3]
  EC50: 0.0789 µM
Human CB1 receptor [2]; CB1 Ki
  Ki: 0.00922 µM

## CC(C)(C)C(NC(=O)c1nn(Cc2ccccc2)c2cc(Br)ccc12)C(N)=O (stereo not shown) [Example 33]
Human CB1 receptor [1]; [3]
  EC50: 0.00092 µM
Human CB1 receptor [2]; CB1 Ki
  Ki: 0.00024 µM

## CC(C)(C)C(NC(=O)c1nn(Cc2ccccc2)c2ccc(-c3ncco3)cc12)C(N)=O (stereo not shown) [Example 35]
Human CB1 receptor [1]; [4]
  EC50: 0.271 µM
Human CB1 receptor [2]; read-out: CB1 Ki
  Ki: 0.0353 µM

## COC(=O)[C@@H](NC(=O)c1nn(Cc2ccccc2)c2ccccc12)C(C)(C)C [Example 38]
Human CB1 receptor [1]; [3]
  EC50: 0.00242 µM
Human CB1 receptor [2]; CB1 Ki
  Ki: 0.00014 µM

## COc1cccc(CNC(=O)c2nn(Cc3ccccc3)c3ccccc23)c1 [Example 43]
Human CB1 receptor [1]; [3]
  EC50: 0.101 µM
Human CB1 receptor [2]; CB1 Ki
  Ki: 0.0271 µM

## CC(C)(C)[C@H](NC(=O)c1nn(Cc2ccccc2)c2cc(-c3cccnc3)ccc12)C(N)=O [Example 45]
Human CB1 receptor [1]; [4]
  EC50: 0.0214 µM
Human CB1 receptor [2]; read-out: CB1 Ki
  Ki: 0.00879 µM

## CC(C)(C)[C@H](NC(=O)c1nn(Cc2ccc(C#N)cc2)c2ccccc12)C(=O)NC1CC1 [Example 65]
Human CB1 receptor [1]; [3]
  EC50: 0.09 µM
Human CB1 receptor [2]; CB1 Ki
  Ki: 0.00385 µM

## CC(C)(C)[C@H](NC(=O)c1nn(Cc2ccc(F)cc2)c2ccc(Cl)cc12)C(=O)NCCN1CCNC(=O)C1 [Example 475]
Human CB1 receptor [2]; read-out: CB1 Ki
  Ki: 0.141 µM

## CC(C)(C)[C@H](NC(=O)c1nn(Cc2ccc(F)cc2)c2ccc(Cl)cc12)C(=O)NCCC(N)=O [Example 477]
Human CB1 receptor [2]; CB1 Ki
  Ki: 0.0283 µM

## Cc1cc(O)nc(NCCNC(=O)[C@@H](NC(=O)c2nn(Cc3ccc(F)cc3)c3ccccc23)C(C)(C)C)n1 [Example 481]
Human CB1 receptor [2]; read-out: CB1 Ki
  Ki: 0.0526 µM

## Cc1cc(O)nc(CCNC(=O)[C@@H](NC(=O)c2nn(Cc3ccc(F)cc3)c3ccccc23)C(C)(C)C)n1 [Example 483]
Human CB1 receptor [2]; read-out: CB1 Ki
  Ki: 0.084 µM

## CCOC(=O)c1ccc(Cn2nc(C(=O)N[C@H](C(=O)NCCO)C(C)(C)C)c3ccccc32)c(F)c1 [Example 484]
Human CB1 receptor [2]; read-out: CB1 Ki
  Ki: > 0.4 µM

## CC(C)(C)[C@H](NC(=O)c1nn(Cc2ccc(C#N)cc2)c2ccccc12)C(=O)NC[C@H]1C[C@@H]1CO [Example 485]
Human CB1 receptor [2]; CB1 Ki
  Ki: 0.152 µM

## CC(C)(C)[C@H](NC(=O)c1nn(Cc2ccc(C#N)cc2)c2c(F)cccc12)C(=O)NC[C@H]1C[C@@H]1CO [Example 486]
Human CB1 receptor [2]; CB1 Ki
  Ki: 0.0439 µM

## CC(C)(C)[C@H](NC(=O)c1nn(Cc2ccc(C#N)cc2)c2cc(F)ccc12)C(=O)NC[C@H]1C[C@@H]1CO [Example 487]
Human CB1 receptor [2]; CB1 Ki
  Ki: 0.109 µM

## CC(C)(C)[C@H](NC(=O)c1nn(Cc2ccc(C#N)cc2)c2ccccc12)C(=O)NC[C@H]1C[C@H]1CO [Example 489]
Human CB1 receptor [2]; CB1 Ki
  Ki: 0.127 µM

## CC(C)(C)[C@H](NC(=O)c1nn(Cc2ccc(C#N)cc2)c2cc(F)ccc12)C(=O)NC[C@H]1C[C@H]1CO [Example 491]
Human CB1 receptor [2]; CB1 Ki
  Ki: 0.0885 µM

## CC(C)(C)[C@H](NC(=O)c1nn(Cc2ccc(F)cc2)c2ccccc12)C(=O)NCC(=O)NCC(=O)O [Example 495]
Human CB1 receptor [2]; read-out: CB1 Ki
  Ki: 0.13 µM

## CC(C)(C)[C@H](NC(=O)c1nn(Cc2ccc(F)cc2)c2ccccc12)C(=O)NC[C@H](O)CN1CCCC1 [Example 503]
Human CB1 receptor [2]; read-out: CB1 Ki
  Ki: 0.321 µM

## CCN(CC)C[C@@H](O)CNC(=O)[C@@H](NC(=O)c1nn(Cc2ccc(F)cc2)c2ccccc12)C(C)(C)C [Example 505]
Human CB1 receptor [2]; read-out: CB1 Ki
  Ki: 0.301 µM

## CN(CCO)C[C@@H](O)CNC(=O)[C@@H](NC(=O)c1nn(Cc2ccc(F)cc2)c2ccccc12)C(C)(C)C [Example 507]
Human CB1 receptor [2]; read-out: CB1 Ki
  Ki: 0.212 µM

## Cn1ccc(NC(=O)[C@@H](NC(=O)c2nn(Cc3ccc(F)cc3)c3ccccc23)C(C)(C)C)n1 [Example 515]
Human CB1 receptor [2]; CB1 Ki
  Ki: 0.0375 µM

## CC(C)(C)[C@H](NC(=O)c1nn(Cc2ccc(F)cc2)c2ccccc12)C(=O)NCC(=O)NCCCO [Example 521]
Human CB1 receptor [2]; read-out: CB1 Ki
  Ki: > 0.4 µM

## CC(C)(C)[C@H](NC(=O)c1nn(Cc2ccc(F)cc2)c2ccccc12)C(=O)NCC(=O)NC[C@H](O)CO [Example 522]
Human CB1 receptor [2]; read-out: CB1 Ki
  Ki: > 0.4 µM
